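Step 1: Grow cells in 96-well plates. Step 2: Expose to compound for 48 hours at 5 concentrations. Step 3: Interpolate endpoints linearly; if unreached, use highest concentration. GI50 = concentration required for 50% inhibition of growth.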 The source made the active and inactive calls. No stated cut-off is given here; in the data, active = GI50 up to about 1.1 µM and inactive = higher.
Tests used:
Experiment in all cases: growth of human tumour cells (NCI), 48 h
Hs-578T = system: Hs-578T
U-251 = system: U-251
LOX IMVI = system: LOX IMVI
OVCAR-3 = system: OVCAR-3
EKVX = system: EKVX
A498 = system: A498
CAKI-1 = system: CAKI-1
RPMI-8226 = system: RPMI-8226
PC-3 = system: PC-3
MDA-MB-231 = system: MDA-MB-231
SK-MEL-5 = system: SK-MEL-5
HT-29 = system: HT-29
SN12C = system: SN12C
SK-MEL-28 = system: SK-MEL-28
SF-295 = system: SF-295
HCT-15 = system: HCT-15
SF-268 = system: SF-268
HCC 2998 = system: HCC 2998
ACHN = system: ACHN
MDA-MB-435 = system: MDA-MB-435
HOP-62 = system: HOP-62
OVCAR-8 = system: OVCAR-8
SK-OV-3 = system: SK-OV-3
HL-60 = system: HL-60
HCT-116 = system: HCT-116
IGROV-1 = system: IGROV-1
786-0 = system: 786-0
SR = system: SR
SW-620 = system: SW-620
HOP-92 = system: HOP-92
KM12 = system: KM12
NCI/ADR-RES = system: NCI/ADR-RES
T47D = system: T47D
OVCAR-5 = system: OVCAR-5
TK-10 = system: TK-10
OVCAR-4 = system: OVCAR-4
DU-145 = system: DU-145
RXF 393 = system: RXF 393
SNB-75 = system: SNB-75
M14 = system: M14
UACC-257 = system: UACC-257
MDA-N = system: MDA-N
A549 = system: A549
NCI-H522 = system: NCI-H522
K562 = system: K562
Malme-3M = system: Malme-3M
MCF7 = system: MCF7
UACC-62 = system: UACC-62
SK-MEL-2 = system: SK-MEL-2
UO-31 = system: UO-31
NCI-H226 = system: NCI-H226
MOLT-4 = system: MOLT-4
CCRF-CEM = system: CCRF-CEM
NCI-H23 = system: NCI-H23
NCI-H460 = system: NCI-H460
COLO 205 = system: COLO 205
BT-549 = system: BT-549
SF-539 = system: SF-539
SNB-19 = system: SNB-19
SNB-78 = system: SNB-78
HOP-18 = system: HOP-18
DLD-1 = system: DLD-1
LXFL 529 = system: LXFL 529
DMS-114 = system: DMS-114
KM-20L2 = system: KM-20L2
M19-MEL = system: M19-MEL

## Cn1c2ccc([N+](=O)[O-])cc2c(=O)n1Cc1ccccc1F
Hs-578T
  GI50: 25.8 µM (inactive)
U-251
  GI50: 37.7 µM (inactive)
LOX IMVI
  GI50: 31.9 µM (inactive)
OVCAR-3
  GI50: 40.8 µM (inactive)
EKVX
  GI50: 41.5 µM (inactive)
A498
  GI50: 37.2 µM (inactive)
CAKI-1
  GI50: 99.3 µM (inactive)
RPMI-8226
  GI50: > 100 µM (inactive)
PC-3
  GI50: 55.7 µM (inactive)
MDA-MB-231
  GI50: 34.2 µM (inactive)
SK-MEL-5
  GI50: 38.3 µM (inactive)
HT-29
  GI50: 54.7 µM (inactive)
SN12C
  GI50: > 100 µM (inactive)
SK-MEL-28
  GI50: 47.5 µM (inactive)
SF-295
  GI50: 54.1 µM (inactive)
HCT-15
  GI50: 40.5 µM
SF-268
  GI50: 36.6 µM (inactive)
HCC 2998
  GI50: 70.8 µM (inactive)
ACHN
  GI50: 53.3 µM (inactive)
MDA-MB-435
  GI50: 74.3 µM (inactive)
HOP-62
  GI50: 57 µM (inactive)
OVCAR-8
  GI50: 28.6 µM (inactive)
SK-OV-3
  GI50: > 100 µM (inactive)
HL-60
  GI50: 64.4 µM (inactive)
HCT-116
  GI50: 29.1 µM (inactive)
IGROV-1
  GI50: 35.1 µM (inactive)
786-0
  GI50: 49.5 µM (inactive)
SR
  GI50: 59.8 µM (inactive)
SW-620
  GI50: > 100 µM (inactive)
HOP-92
  GI50: 27.7 µM (inactive)
KM12
  GI50: 35.3 µM (inactive)
NCI/ADR-RES
  GI50: 23 µM (inactive)
T47D
  GI50: 19.4 µM (inactive)
OVCAR-5
  GI50: 46.3 µM (inactive)
TK-10
  GI50: 34 µM (inactive)
OVCAR-4
  GI50: 47.8 µM (inactive)
DU-145
  GI50: 51.2 µM (inactive)
RXF 393
  GI50: 61 µM (inactive)
SNB-75
  GI50: 20.9 µM (inactive)
M14
  GI50: 25.4 µM (inactive)
UACC-257
  GI50: 42.4 µM (inactive)
MDA-N
  GI50: 27.4 µM (inactive)
A549
  GI50: 44.3 µM (inactive)
NCI-H522
  GI50: 24.5 µM (inactive)
K562
  GI50: 38.5 µM (inactive)
Malme-3M
  GI50: 46.8 µM (inactive)
MCF7
  GI50: > 100 µM (inactive)
UACC-62
  GI50: 48.5 µM (inactive)
SK-MEL-2
  GI50: 53.8 µM (inactive)
UO-31
  GI50: 37.9 µM (inactive)
NCI-H226
  GI50: 29.4 µM (inactive)
MOLT-4
  GI50: 45.8 µM (inactive)
CCRF-CEM
  GI50: 46.6 µM (inactive)
NCI-H23
  GI50: 48 µM (inactive)
NCI-H460
  GI50: 40.1 µM (inactive)
COLO 205
  GI50: 39.6 µM (inactive)
BT-549
  GI50: > 100 µM (inactive)
SF-539
  GI50: 25.2 µM (inactive)
SNB-19
  GI50: 33.5 µM (inactive)

## C=CCCCCn1c2ccccc2c2c(C)c3c[n+](C)ccc3c(C)c21
U-251
  GI50: 0.197 µM (active)
SNB-78
  GI50: 0.387 µM (active)
LOX IMVI
  GI50: 0.284 µM (active)
OVCAR-3
  GI50: 0.288 µM (active)
A498
  GI50: 1.44 µM (inactive)
CAKI-1
  GI50: 14.3 µM (inactive)
RPMI-8226
  GI50: 0.212 µM (active)
SK-MEL-5
  GI50: 0.329 µM (active)
HT-29
  GI50: 0.271 µM (active)
SN12C
  GI50: 0.234 µM (active)
SK-MEL-28
  GI50: 0.426 µM (active)
SF-295
  GI50: 0.208 µM (active)
SF-268
  GI50: 0.366 µM (active)
ACHN
  GI50: 2.68 µM (inactive)
HOP-62
  GI50: 0.643 µM (active)
OVCAR-8
  GI50: 0.197 µM (active)
SK-OV-3
  GI50: 1.2 µM (inactive)
HL-60
  GI50: 0.171 µM (active)
HCT-116
  GI50: 0.244 µM (active)
IGROV-1
  GI50: 0.252 µM (active)
786-0
  GI50: 0.752 µM (active)
SR
  GI50: 0.284 µM (active)
SW-620
  GI50: 0.296 µM (active)
HOP-92
  GI50: 0.237 µM (active)
KM12
  GI50: 0.392 µM (active)
OVCAR-5
  GI50: 1.07 µM (active)
HOP-18
  GI50: 0.0912 µM (active)
TK-10
  GI50: 1.86 µM (inactive)
OVCAR-4
  GI50: 0.284 µM (active)
RXF 393
  GI50: 0.684 µM (active)
SNB-75
  GI50: 0.713 µM (active)
M14
  GI50: 0.979 µM (active)
DLD-1
  GI50: 0.607 µM (active)
UACC-257
  GI50: 0.391 µM (active)
LXFL 529
  GI50: 0.176 µM (active)
A549
  GI50: 0.3 µM (active)
NCI-H522
  GI50: 0.176 µM (active)
K562
  GI50: 0.281 µM (active)
DMS-114
  GI50: 0.118 µM (active)
Malme-3M
  GI50: 0.275 µM (active)
KM-20L2
  GI50: 0.352 µM (active)
UACC-62
  GI50: 0.336 µM (active)
SK-MEL-2
  GI50: 0.396 µM (active)
UO-31
  GI50: 5.28 µM (inactive)
NCI-H226
  GI50: 0.212 µM (active)
MOLT-4
  GI50: 0.298 µM (active)
CCRF-CEM
  GI50: 0.335 µM (active)
NCI-H23
  GI50: 0.382 µM (active)
NCI-H460
  GI50: 0.356 µM (active)
COLO 205
  GI50: 0.25 µM (active)
M19-MEL
  GI50: 0.296 µM (active)
SF-539
  GI50: 0.564 µM (active)
SNB-19
  GI50: 0.412 µM (active)
